Reference: paper PMC6775455, “Chemoperception of Specific Amino Acids Controls Phytopathogenicity in Pseudomonas syringae pv. tomato” (mBio, 2019)

Molecular target: T1, PsPto-PscA-LBD (Pseudomonas syringae group genomosp. 3, UniProt Q882Z2)
T1 construct: host E. coli BL21(DE3)
Assay: isothermal titration calorimetry
Format: binding
Conditions: read-out: Mean KD (μM) ± SEM
Source text: isothermal titration calorimetry on PsPto-PscA-LBD

T1 sequence (Q882Z2 30-278): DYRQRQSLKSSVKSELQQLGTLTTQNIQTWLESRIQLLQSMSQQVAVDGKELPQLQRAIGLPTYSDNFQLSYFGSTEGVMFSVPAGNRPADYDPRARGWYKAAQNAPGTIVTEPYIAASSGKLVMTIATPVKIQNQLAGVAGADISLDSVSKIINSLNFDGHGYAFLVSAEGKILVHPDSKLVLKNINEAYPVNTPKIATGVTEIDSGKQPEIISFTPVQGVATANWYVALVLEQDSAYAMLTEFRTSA

N[C@H](CC(=O)O)C(=O)O [D-Asp] and N[C@@H](CC(=O)O)C(=O)O [L-Asp] are the same in Kd: 1.2 ± 0.1 µM for the first, 1.2 ± 0.1 µM for the second.

N[C@@H](CCC(=O)O)C(=O)O [L-Glu] was tested, and the Kd was 3.4 ± 0.1 µM.
